Data reported in patent publication US20240002370A1, “PYRROLE-TYPE COMPOUNDS AND USES THEREOF FOR TREATING VIRAL INFECTIONS” (ENYO PHARMA, priority 2020, published 2024).

System: H1N1 (influenza A/New Caledonia/20/99)
Experiment: microbe, parasite or virus in culture
Assay type: cell-based
Conditions: H1N1, A549, 48 h

| Structure (SMILES) | IC50 |
| --- | --- |
| COC1=CC(c2cc3c([nH]2)CCCC3C)=N/C1=C\c1[nH]c(C)cc1C (centres unmarked) [Compound 7, (Z)-2-(2-((3,5-dimethyl-1H-pyrrol-2-yl)methylene)-3-methoxy-2H-pyrrol-5-yl)-4-methyl-4,5,6,7-tetrahydro-1H-indole] | 0.075 µM |
| COC1=CC(c2cc3c([nH]2)CCCC3)=N/C1=C\c1[nH]c(C)cc1C [Compound 3, (Z)-2-(2-((3,5-dimethyl-1H-pyrrol-2-yl)methylene)-3-methoxy-2H-pyrrol-5-yl)-4,5,6,7-tetrahydro-1H-indole] | 0.056 µM |
| COC1=CC(c2cc3c([nH]2)CCC(C)C3)=N/C1=C\c1[nH]c(C)cc1C (centres unmarked) [Compound 19, (Z)-2-(2-((3,5-dimethyl-1H-pyrrol-2-yl)methylene)-3-methoxy-2H-pyrrol-5-yl)-5-methyl-4,5,6,7-tetrahydro-1H-indole] | 0.091 µM |
| COC1=CC(c2cc3ccccc3[nH]2)=N/C1=C\c1[nH]c(C)cc1C [Obatoclax, reference compound] | 0.091 µM |
| COC1=CC(c2cc3c([nH]2)CCCC32CC2)=N/C1=C\c1[nH]c(C)cc1C [Compound 23, (Z)-2′-(2-((3,5-dimethyl-1H-pyrrol-2-yl)methylene)-3-methoxy-2H-pyrrol-5-yl)-1′,5′,6′,7′-tetrahydrospiro[cyclopropane-1,4′-indole]] | 0.077 µM |
